Several values for one entry are separate records, joined by “and”; a condition that tells them apart may be missing. Identical values can stand only once.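 Five concentrations, 48 hours, 96-well plates. At the GI50, growth is halved. TGI marks complete inhibition of growth.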
Experiments:
Experiment in all cases: inhibition of tumour cell growth, NCI panel, 48 h
OVCAR-3 ovarian = system: OVCAR-3 ovarian
K-562 leukemia = system: K-562 leukemia
NCI-H23 lung = system: NCI-H23 lung
LOX IMVI melanoma = system: LOX IMVI melanoma
T-47D breast = system: T-47D breast
MDA-MB-435 = system: MDA-MB-435
HOP-92 NSCLC = system: HOP-92 NSCLC
BT-549 breast = system: BT-549 breast
HT29 colon = system: HT29 colon
UACC-257 melanoma = system: UACC-257 melanoma

Row | SMILES | GI50 (OVCAR-3 ovarian) | TGI (OVCAR-3 ovarian) | GI50 (K-562 leukemia) | TGI (K-562 leukemia) [µM] | GI50 (NCI-H23 lung) | TGI (NCI-H23 lung) | GI50 (LOX IMVI melanoma) | TGI (LOX IMVI melanoma) | GI50 (T-47D breast) | TGI (T-47D breast) | GI50 (MDA-MB-435) | TGI (MDA-MB-435) | GI50 (HOP-92 NSCLC) | TGI (HOP-92 NSCLC) | GI50 (BT-549 breast) | TGI (BT-549 breast) | GI50 (HT29 colon) | TGI (HT29 colon) | GI50 (UACC-257 melanoma) | TGI (UACC-257 melanoma)
1 | CCc1n(Cc2ccc3ccccc3c2)cc[n+]1Cc1ccc2ccccc2c1 | 466 nM | 1.74 µM | 404 nM | 2.27 | 396 nM | 2.02 µM | 649 nM | 1.96 µM | 425 nM | 4.7 µM | 424 nM | 1.57 µM | 338 nM | 1.77 µM | 674 nM | 2.12 µM | 0.563 µM | 2.23 µM | 554 nM | 3.27 µM
2 | N#C/C(=C\c1ccccn1)c1nc2ccccc2o1 | 29700 nM | > 100 µM | 28600 nM | > 100 | 33900 nM | > 100 µM | 17000 nM | 38.1 µM | 14500 nM | 34.3 µM | 34600 nM | > 100 µM | 58.6 nM | 20.7 µM | 17300 nM | 36.1 µM | 30.6 µM | 95.2 µM | 35800 nM | > 100 µM
3 | C=CCC(NCc1ccccc1)c1cn(C(=O)OCC)c2ccccc12 (configuration not stated) | 17300 nM | 33.7 µM | 2370 nM | 15 | 17700 nM | 43.6 µM | 17000 nM | 30.9 µM | 33300 nM | > 100 µM | 20200 nM | 45.9 µM | 13800 nM | 40.7 µM | 21300 nM | 46.9 µM | 29.6 µM | > 100 µM | 23800 nM | 49.5 µM
4 | O=C1C=CC(=O)N1c1ccc2ccccc2c1 | 3230 nM | 8.75 µM | 3450 nM | > 100 | 17100 nM | 37.2 µM | 16400 nM | 31.3 µM | 3730 nM | 14.7 µM | 16900 nM | 32.2 µM | 7590 nM | 22.2 µM | 14300 nM | 27.8 µM | 4.94 µM | 27.8 µM | 10500 nM | 22.7 µM
5 | COc1cccc(/C=C2\COc3ccc(O)c(O)c3C2=O)c1OC | 1160 nM | 2.85 µM | 1470 nM | > 100 | 2900 nM | 11.1 µM | 1530 nM | 3.08 µM | 1660 nM | 22.1 µM | 2300 nM | 7 µM | 2690 nM | 8.81 µM | 1890 nM | 8.7 µM | 3.33 µM | 10.1 µM | 2370 nM | 7.18 µM
6 | COC(=O)c1cc2c3cc(Cl)ccc3[nH]c2c2ncccc12 | > 100000 nM | > 100 µM | > 100000 nM | > 100 | > 100000 nM | > 100 µM | > 100000 nM | > 100 µM | 24700 nM | > 100 µM | > 100000 nM | > 100 µM | > 100000 nM | > 100 µM | > 100000 nM | > 100 µM | > 100 µM | > 100 µM | > 100000 nM | > 100 µM
7 | Nc1ncnc2occ(-c3ccc(NC(=O)Nc4cccc(C(F)(F)F)c4)cc3)c12 | 4790 nM | 9.72 µM | 1300 nM | 25 | 4100 nM | 13.3 µM | 2570 nM | 12.1 µM | 5220 nM | 15 µM | 2220 nM | 6.48 µM | 3430 nM | 10.1 µM | 4320 nM | 10.5 µM | 3.12 µM | 10.6 µM | 4240 nM | 8.86 µM
8 | CC12CC(Br)(Br)C(=O)C3C1CCCC32 |  | 7.08 µM |  | 11.7 |  | 16.3 µM |  | 7.67 µM |  | 6.4 µM |  | 8.78 µM |  | 6.19 µM |  | 5.04 µM |  | 24.2 µM |  | 22.2 µM
9 | Cc1nc2ccccc2c(/C=C/c2ccc(F)cc2)c1C(=O)/C=C/c1ccccc1 | 1570 nM | 3.12 µM | 2440 nM | 8.24 | 1990 nM | 5.43 µM | 1690 nM | 3.11 µM | 1550 nM | 9.87 µM | 2940 nM | 12.2 µM | 2020 nM | 31.5 µM | 2980 nM | 13.6 µM | 2.81 µM | > 100 µM | 2820 nM | 8.65 µM
10 | NC(=O)c1c(NC(=O)c2ccc(C(F)(F)F)cc2Cl)sc2c1CCC(=O)C2 | 369 nM | 1.33 µM | 126 nM |  | 288 nM | 1.68 µM | 383 nM | 1.83 µM | 238 nM | 4.73 µM | 393 nM | 1.79 µM | 426 nM | 2.88 µM | 294 nM | 1.91 µM | 0.346 µM | 1.67 µM | 654 nM | 3.46 µM
11 | O=C1c2c[n+](Cc3ccccc3)ccc2-c2nc3ccccc3c3ccnc1c23 | 379 nM | 1.87 µM | 733 nM | 7.83 | 158 nM | 1.26 µM | 583 nM | 2.02 µM | 648 nM | 1.7 µM | 434 nM | 0.972 µM | 548 nM | 1.9 µM | 1150 nM | 4.85 µM | 0.971 µM | 3.46 µM | 865 nM | 2.33 µM
12 | O=C(Nc1ccc(Br)cc1)c1cc(Br)ccc1O | 314 nM and 535 nM | 7.81 µM and 7.14 µM | 437 nM and 419 nM |  | 345 nM and 467 nM | 2.06 µM and 4.34 µM | 549 nM and 1090 nM | 4.46 µM and 4.42 µM | 337 nM and 604 nM | 5.02 µM and 7.42 µM | 430 nM and 1380 nM | 3.23 µM and 5.66 µM | 218 nM and 332 nM | 0.698 µM and 2.88 µM | 327 nM and 724 nM | 2.12 µM and 3.03 µM | 3.11 µM and 3.38 µM | 16 µM and 39 µM | 455 nM and 2730 nM | 3.58 µM and 8.43 µM
13 | CC(C)OC(=O)NNc1c(Cl)cc(Cl)cc1Cl |  | > 100 µM |  | > 100 |  | > 100 µM |  | > 100 µM |  | > 100 µM |  | > 100 µM |  | > 100 µM |  | > 100 µM |  | > 100 µM |  | > 100 µM
14 | C=CC(=O)N1CCN(c2nc(OC[C@@H]3CCCN3C)nc3c(F)c(-c4nc(N)cc(C)c4C(F)(F)F)c(Cl)cc23)[C@@H](C)C1 | 1660 nM | 3.14 µM | 2470 nM | 8.92 |  | 1.34 µM | 1600 nM | 3.02 µM | 2140 nM | 7.17 µM | 2090 nM | 4.65 µM | 1750 nM | 3.71 µM | 1710 nM | 3.32 µM | 2.61 µM | 9.8 µM | 1570 nM | 3 µM
15 | CC(=O)OC1C(C)OC(Oc2c(-c3ccc(O)cc3)oc3cc(O)cc(O)c3c2=O)C(O)C1OC(C)=O (configuration not stated) | 20600 nM | 45.3 µM | 30800 nM | > 100 | 26400 nM | > 80.7 µM | 21000 nM | 50.2 µM | 23400 nM | 68.6 µM | 27200 nM | > 75.4 µM | 13200 nM | 54.3 µM | 19900 nM | 54.8 µM | 31.4 µM | > 91.3 µM | 27600 nM | > 79.9 µM
16 | COc1cccc(C2=C(c3cn(C)c4c(C)cccc34)C(=O)NC2=O)c1 | 16500 nM | > 25 µM | 12800 nM | > 25 | > 25000 nM | > 25 µM | > 25000 nM | > 25 µM | > 20200 nM | > 25 µM | 18200 nM | > 25 µM | > 25000 nM | > 25 µM | > 25000 nM | > 25 µM | > 19.6 µM | > 25 µM | > 25000 nM | > 25 µM
17 | O=C1C2C3C=CC(C2C(=O)N1CN1CCOCC1)C1C2C(=O)N(CN4CCOCC4)C(=O)C2C31 (configuration not stated) |  | > 77.8 µM |  | > 79.3 |  | > 66.8 µM |  | > 60.9 µM |  | > 100 µM |  | > 100 µM |  | > 93.8 µM |  | > 100 µM |  | > 100 µM |  | > 71.5 µM
